Measured values reported in publication PMC8399847, “Hybrid Quinolinyl Phosphonates as Heterocyclic Carboxylate Isosteres: Synthesis and Biological Evaluation against Topoisomerase 1B (TOP1B)” (Pharmaceuticals, 2021).

Columns and labels:
[1] = CCK-8 cytotoxicity assay, MRC-5 non-cancerous cells; format: cell-based; conditions: human, MRC-5 non-malignant lung fibroblasts
Experimental: (§1) The cytotoxicity of the newly synthesized quinolinylphosphonates 7 was evaluated in vitro by testing their antiproliferative activities against several human cancer cell lines: A549 (human lung adenocarcinoma cells), SKOV3 (human ovarian carcinoma), and HEK293 (human embryonic kidney). In order to analyze the selective cytotoxicity facing exclusively cancerous cell lines, cytotoxicity against non-cancerous cell lines (MRC-5, lung fibroblast cells) was also evaluated. Cell counting kit (CCK-8) assay was employed to assess growth inhibition and, cell proliferation inhibitory activities of compounds that are listed in Table 1 as IC50 values. […] According to the data presented in Table 1, in general, all these phosphorated derivatives present higher selective cytotoxicity in the A549 cell line than in the other two cell lines, SKOV3 and HEK293, although slight differences are observed compared to human ovarian carcinoma (SKOV3).
(§2) Cells were cultured according to the supplier’s instructions, A549 (ATCC® CCL-185), SKOV3 (ATCC® HTB-77), HEK293 (CLS GmbH), MRC-5 (ATCC® CCL-171™). Cells were seeded in 96-well plates at a density of 2–2.5 × 10^3 cells per well and incubated overnight in 0.1 mL of media supplied with 10% Fetal Bovine Serum (Lonza, Basel, Switzerland) in a 5% CO2 incubator at 37 °C. On day 2, drugs (concentration between 0.5–50 μM) were added and samples were incubated for 48 h. After treatment, 10 μL of cell counting kit-8 was added to each well for an additional 2 h incubation at 37 °C. The absorbance of each well was determined by an Automatic Elisa Reader System at 450 nm wavelength. CPT was purchased from Sigma-Aldrich and used as a positive control.

L. infantum amastigotes = assay: Ex vivo murine splenic explant culture, intramacrophage amastigotes; format: cell-based; conditions: Leishmania infantum, Hec50; intramacrophage amastigotes in splenic explants, 96 h, EC50 ± SD
Experimental: The effect of the new quinolinylphosphonate derivatives 7 synthesized was assessed on both free-living promastigotes and intramacrophage amastigotes of L. infantum as it is described in experimental protocols. Primary cultures of intramacrophage amastigotes were obtained from splenic explants from 6-weeks infected Balb/c mice with L. infantum-iRFP promastigotes. The infrared fluorescence emitted by both stage forms of the parasite was used as viability criterium, using 0.5% DMSO as negative control (100% viability) and […] AMB as a positive control (0% viability).
The EC50 values of compounds against the amastigote forms were calculated using a cell suspension obtained from spleens extracted from BALB/c mice. Mice had been infected previously with iRFP L. infantum metacyclic promastigotes and sacrificed five weeks after infection. To obtain the cell suspension containing amastigotes, spleens washed with cold phosphate-buffered saline (PBS), were cut into pieces, and incubated with 5 mL of 2 mg/mL collagenase D (Sigma, Darmstadt, Germany), which was prepared in buffer (10 mM HEPES, pH 7.4, 150 mM NaCl, 5 mM KCl, 1 mM MgCl2 and 1.8 mM CaCl2) for 20 min. Subsequently, these cells were passed through a 100 µm cell strainer, collected by centrifugation (500× g for 7 min at 4 °C), washed twice with PBS, and suspended in RPMI medium (Gibco, Thermo Fisher Scientific, MA, USA) supplemented with 10 mM HEPES, 1 mM sodium pyruvate, 1xRPMI 1640 vitamin mix, 10% (v/v) FBS, 50 U/mL penicillin and 50 µg/mL streptomycin, at 37 °C under a 5% CO2 atmosphere.
To assay the effect of the different compounds against amastigotes, which infect splenic cells, these cells were seeded to confluence into 384-well black optical bottom plates (Thermo Scientific, Waltham, MA, USA) in addition to different concentrations of compound to each well. The viability of amastigotes was calculated by recording their fluorescence at 708 nm in an Odyssey (Li-Cor, NE, USA) infrared imaging system, after 96 h of exposure. Plots of the infrared fluorescence against the concentrations of tested compounds were fitted by nonlinear analysis using the Sigma Plot 10.1 statistical package and used to calculate EC50 values. As well as promastigotes viability, the assays were performed in triplicate.

[2] = system: HEK293 (human embryonic kidney); assay: CCK-8 cytotoxicity assay, HEK293; format: cell-based; conditions: HEK293, 48 h, CCK-8, 50% growth inhibition
Experimental: as §1, §2

murine splenocytes = assay: Splenocyte viability, Alamar Blue; format: cell-based, BALB/c mice; conditions: for IC50: Mus musculus, Splenocyte, read-out: IC50 Splenocites; for SI (selectivity index): ratio IC50 splenic cells / EC50 amastigotes
Experimental: The viability of splenocytes cells against the different compounds was measured using the Alamar Blue staining method (Invitrogen, MA, USA). For this purpose, these cells were obtained following the protocol indicated in the previous section, from uninfected mice. Plots of absorbance of viable cells (obtained following manufacturer’s recommendations of Alamar Blue) vs compounds concentration were used to calculate CC50 values. Plots were fitted by nonlinear analysis using the Sigma Plot 10.1 statistical package. The assays were performed by triplicate.
The selectivity index for each compound was calculated as the ratio between the IC50 value for splenic cells and the EC50 value for amastigotes.

## Cc1ccc(-c2cc(-c3ccc(F)c(F)c3)nc3c(P(=O)(OC(C)C)OC(C)C)cccc23)cc1 [7q, Diisopropyl (2-(3,4-difluorophenyl)-4-(p-tolyl)quinolin-8-yl)phosphonate]
[1]
  IC50 at 48 h: > 50 µM
L. infantum amastigotes
  EC50: 13.9 ± 3.65 µM
[2]
  IC50: 12.3 ± 0.71 µM
Murine splenocytes
  IC50: 28.3 ± 9.16 µM
  SI (selectivity index): 2

## CCOP(=O)(OCC)c1cccc2c(-c3ccccc3)cc(-c3ccccc3)nc12 [7a, Diethyl (2,4-diphenylquinolin-8-yl)phosphonate]
[1]
  IC50 at 48 h: > 50 µM
L. infantum amastigotes
  EC50: 4.03 ± 0.3 µM
[2]
  IC50: 27.3 ± 2.22 µM
Murine splenocytes
  IC50: 3.61 ± 0.45 µM
  SI (selectivity index): 0.9
